Test system: 282377-053-R-J1-PDC complex spheroid viability
Test: Anticancer human tumor 282377-053-R-J1-PDC patient-derived colon adenocarcinoma cell line growth inhibition [RAS]
Conditions: for IC50: curve of first compound; for viability, T/C: stronger effect = lower value; active means viability on the fitted dose curve at most 10% of control; inactive means the rest
In short: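 Multi-cell-type spheroids: tumor cells plus HUVEC endothelial cells and mesenchymal stem cells. RAS-pathway inhibitors were combined with targeted agents, each dosed in half-log steps down from clinical Cmax, or from 10 microM when Cmax was unknown.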

[1] = second compound 0.000949 µM, first compound 0.00316 µM
[2] = second compound 0.000949 µM, first compound 0.01 µM
[3] = second compound 0.000949 µM, first compound 0.0316 µM
[4] = second compound 0.000949 µM, first compound 0.1 µM
[5] = second compound 0.003 µM, first compound 0.00316 µM
[6] = second compound 0.003 µM, first compound 0.01 µM
[7] = second compound 0.003 µM, first compound 0.0316 µM
[8] = second compound 0.003 µM, first compound 0.1 µM
[9] = second compound 0.00949 µM, first compound 0.00316 µM
[10] = second compound 0.00949 µM, first compound 0.01 µM
[11] = second compound 0.00949 µM, first compound 0.0316 µM
[12] = second compound 0.00949 µM, first compound 0.1 µM
[13] = second compound 0.03 µM, first compound 0.00316 µM
[14] = second compound 0.03 µM, first compound 0.01 µM
[15] = second compound 0.03 µM, first compound 0.0316 µM
[16] = second compound 0.03 µM, first compound 0.1 µM
[17] = second compound 0.0949 µM, first compound 0.00316 µM
[18] = second compound 0.0949 µM, first compound 0.01 µM
[19] = second compound 0.0949 µM, first compound 0.0316 µM
[20] = second compound 0.0949 µM, first compound 0.1 µM
[21] = second compound 0.3 µM, first compound 0.00316 µM
[22] = second compound 0.3 µM, first compound 0.01 µM
[23] = second compound 0.3 µM, first compound 0.0316 µM
[24] = second compound 0.3 µM, first compound 0.1 µM
[25] = second compound 0.000949 µM, first compound 0.316 µM
[26] = second compound 0.000949 µM, first compound 1 µM
[27] = second compound 0.000949 µM, first compound 3.16 µM
[28] = second compound 0.000949 µM, first compound 10 µM
[29] = second compound 0.003 µM, first compound 0.316 µM
[30] = second compound 0.003 µM, first compound 1 µM
[31] = second compound 0.003 µM, first compound 3.16 µM
[32] = second compound 0.003 µM, first compound 10 µM
[33] = second compound 0.00949 µM, first compound 0.316 µM
[34] = second compound 0.00949 µM, first compound 1 µM
[35] = second compound 0.00949 µM, first compound 3.16 µM
[36] = second compound 0.00949 µM, first compound 10 µM
[37] = second compound 0.03 µM, first compound 0.316 µM
[38] = second compound 0.03 µM, first compound 1 µM
[39] = second compound 0.03 µM, first compound 3.16 µM
[40] = second compound 0.03 µM, first compound 10 µM
[41] = second compound 0.0949 µM, first compound 0.316 µM
[42] = second compound 0.0949 µM, first compound 1 µM
[43] = second compound 0.0949 µM, first compound 3.16 µM
[44] = second compound 0.0949 µM, first compound 10 µM
[45] = second compound 0.3 µM, first compound 0.316 µM
[46] = second compound 0.3 µM, first compound 1 µM
[47] = second compound 0.3 µM, first compound 3.16 µM
[48] = second compound 0.3 µM, first compound 10 µM
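Further: spheroids exposed to agents for seven days before readout.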
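Wherever viability, T/C is given: luminescence viability as percent of DMSO vehicle control wells.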

CC(C)n1nc(-c2ccc3oc(N)nc3c2)c2c(N)ncnc21 + CCn1c(-c2cc(N3CCN(C)CC3)cnc2C(C)OC)c2c3cc(ccc31)-c1csc(n1)CC(NC(=O)C1CC1C)C(=O)N1CCCC(N1)C(=O)OCC(C)(C)C2
0.0451 µM: IC50 (second compound 0.0949 µM)
0.0605 µM: IC50 (second compound 0.003 µM)
> 0.1 µM: IC50 (second compound 0.000949 µM) | IC50 (second compound 0.3 µM)
0.0962 µM: IC50 (second compound 0.00949 µM)
inactive: viability, T/C (second compound 0.000949 µM, first compound 0.000316 µM) 68.7% | viability, T/C (second compound 0.000949 µM, first compound 0.001 µM) 101% | viability, T/C [1] 86.2% | viability, T/C [2] 74.5% | viability, T/C [3] 64.3% | viability, T/C [4] 50.4% | viability, T/C (second compound 0.003 µM, first compound 0.000316 µM) 103% | viability, T/C (second compound 0.003 µM, first compound 0.001 µM) 102% | viability, T/C [5] 77.8% | viability, T/C [6] 72.1% | viability, T/C [7] 61.7% | viability, T/C [8] 42.1% | viability, T/C (second compound 0.00949 µM, first compound 0.000316 µM) 96.1% | viability, T/C (second compound 0.00949 µM, first compound 0.001 µM) 102% | viability, T/C [9] 93.8% | viability, T/C [10] 73.4% | viability, T/C [11] 54.3% | viability, T/C [12] 49.5% | viability, T/C (second compound 0.03 µM, first compound 0.000316 µM) 104% | viability, T/C (second compound 0.03 µM, first compound 0.001 µM) 88% | viability, T/C [13] 88.9% | viability, T/C [14] 62.4% | viability, T/C [15] 54% | viability, T/C [16] 43.5% | viability, T/C (second compound 0.0949 µM, first compound 0.000316 µM) 100% | viability, T/C (second compound 0.0949 µM, first compound 0.001 µM) 84.9% | viability, T/C [17] 86.9% | viability, T/C [18] 60.7% | viability, T/C [19] 57.7% | viability, T/C [20] 39.5% | viability, T/C (second compound 0.3 µM, first compound 0.000316 µM) 90.3% | viability, T/C (second compound 0.3 µM, first compound 0.001 µM) 98.8% | viability, T/C [21] 78.3% | viability, T/C [22] 65.5% | viability, T/C [23] 58.9% | viability, T/C [24] 48.9%
0.0438 µM: IC50 (second compound 0.03 µM)

CC1(O)CCCC1n1c(=O)c(C(F)F)cc2cnc(NC3CCN(S(C)(=O)=O)CC3)nc21 (stereo not drawn) + CCn1c(-c2cc(N3CCN(C)CC3)cnc2C(C)OC)c2c3cc(ccc31)-c1csc(n1)CC(NC(=O)C1CC1C)C(=O)N1CCCC(N1)C(=O)OCC(C)(C)C2
6.98 µM: IC50 (second compound 0.03 µM)
6.92 µM: IC50 (second compound 0.0949 µM)
7.08 µM: IC50 (second compound 0.3 µM)
7.03 µM: IC50 (second compound 0.00949 µM)
7.15 µM: IC50 (second compound 0.003 µM)
6.75 µM: IC50 (second compound 0.000949 µM)
inactive: viability, T/C [3] 101% | viability, T/C [4] 141% | viability, T/C [25] 112% | viability, T/C [26] 155% | viability, T/C [27] 162% | viability, T/C [7] 116% | viability, T/C [8] 117% | viability, T/C [29] 151% | viability, T/C [30] 146% | viability, T/C [31] 204% | viability, T/C [32] 10.2% | viability, T/C [11] 91.9% | viability, T/C [12] 115% | viability, T/C [33] 165% | viability, T/C [34] 153% | viability, T/C [35] 189% | viability, T/C [15] 112% | viability, T/C [16] 104% | viability, T/C [37] 169% | viability, T/C [38] 182% | viability, T/C [39] 167% | viability, T/C [19] 94.1% | viability, T/C [20] 141% | viability, T/C [41] 139% | viability, T/C [42] 141% | viability, T/C [43] 203% | viability, T/C [23] 106% | viability, T/C [24] 134% | viability, T/C [45] 152% | viability, T/C [46] 190% | viability, T/C [47] 174%
active: viability, T/C [28] 6.35% | viability, T/C [36] 9.24% | viability, T/C [40] 6.22% | viability, T/C [44] 5.83% | viability, T/C [48] 6.62%

CCN1CCN(Cc2ccc(Nc3ncc(F)c(-c4cc(F)c5nc(C)n(C(C)C)c5c4)n3)nc2)CC1 + CCn1c(-c2cc(N3CCN(C)CC3)cnc2C(C)OC)c2c3cc(ccc31)-c1csc(n1)CC(NC(=O)C1CC1C)C(=O)N1CCCC(N1)C(=O)OCC(C)(C)C2
inactive: viability, T/C [1] 101% | viability, T/C [2] 119% | viability, T/C [3] 98.1% | viability, T/C [4] 120% | viability, T/C [25] 188% | viability, T/C [26] 180% | viability, T/C [5] 102% | viability, T/C [6] 137% | viability, T/C [7] 114% | viability, T/C [8] 90.1% | viability, T/C [29] 142% | viability, T/C [30] 170% | viability, T/C [9] 115% | viability, T/C [10] 126% | viability, T/C [11] 96.2% | viability, T/C [12] 105% | viability, T/C [33] 108% | viability, T/C [34] 194% | viability, T/C [13] 90.4% | viability, T/C [14] 106% | viability, T/C [15] 87.7% | viability, T/C [16] 105% | viability, T/C [37] 131% | viability, T/C [38] 212% | viability, T/C [17] 98.8% | viability, T/C [18] 112% | viability, T/C [19] 89.8% | viability, T/C [20] 123% | viability, T/C [41] 146% | viability, T/C [42] 246% | viability, T/C [21] 102% | viability, T/C [22] 123% | viability, T/C [23] 123% | viability, T/C [24] 119% | viability, T/C [45] 162% | viability, T/C [46] 227%
> 1 µM: IC50 (second compound 0.000949 µM) | IC50 (second compound 0.003 µM) | IC50 (second compound 0.00949 µM) | IC50 (second compound 0.03 µM) | IC50 (second compound 0.0949 µM) | IC50 (second compound 0.3 µM)

C[C@@H](NC(=O)c1ncnc(N)c1Cl)c1ncc(C(=O)Nc2cc(C(F)(F)F)c(Cl)cn2)s1 + CCn1c(-c2cc(N3CCN(C)CC3)cnc2C(C)OC)c2c3cc(ccc31)-c1csc(n1)CC(NC(=O)C1CC1C)C(=O)N1CCCC(N1)C(=O)OCC(C)(C)C2
> 10 µM: IC50 (second compound 0.000949 µM) | IC50 (second compound 0.003 µM) | IC50 (second compound 0.00949 µM) | IC50 (second compound 0.03 µM) | IC50 (second compound 0.0949 µM) | IC50 (second compound 0.3 µM)
inactive: viability, T/C [3] 82.7% | viability, T/C [4] 100% | viability, T/C [25] 80% | viability, T/C [26] 82.7% | viability, T/C [27] 75.6% | viability, T/C [28] 68.8% | viability, T/C [7] 89.8% | viability, T/C [8] 125% | viability, T/C [29] 81.8% | viability, T/C [30] 90.2% | viability, T/C [31] 70.6% | viability, T/C [32] 59.2% | viability, T/C [11] 110% | viability, T/C [12] 115% | viability, T/C [33] 85.8% | viability, T/C [34] 94% | viability, T/C [35] 68% | viability, T/C [36] 57.9% | viability, T/C [15] 97.2% | viability, T/C [16] 106% | viability, T/C [37] 89.4% | viability, T/C [38] 96% | viability, T/C [39] 63.2% | viability, T/C [40] 60.1% | viability, T/C [19] 110% | viability, T/C [20] 105% | viability, T/C [41] 77.1% | viability, T/C [42] 94.2% | viability, T/C [43] 73.1% | viability, T/C [44] 74.2% | viability, T/C [23] 94.3% | viability, T/C [24] 103% | viability, T/C [45] 89.3% | viability, T/C [46] 108% | viability, T/C [47] 86.4% | viability, T/C [48] 61.2%
